{"source": "paper PMC6982861", "about": "“Synthesis, Structural Characterization, and Biological Activity of New Pyrazolo[4,3-e][1,2,4]triazine Acyclonucleosides” (Molecules, 2020)", "key": {"[1]": {"experiment": "[…] kinase assay, P-81 phosphocellulose", "type": "biochemical, Homo sapiens", "conditions": "read-out: MTT Assay ^a, IC50 (μM) / K-562"}, "[2]": {"target": "T1, (Homo sapiens, UniProt P00519)", "T1 construct": "gene ABL1; Abl kinase", "T1 sequence (P00519 whole entry)": "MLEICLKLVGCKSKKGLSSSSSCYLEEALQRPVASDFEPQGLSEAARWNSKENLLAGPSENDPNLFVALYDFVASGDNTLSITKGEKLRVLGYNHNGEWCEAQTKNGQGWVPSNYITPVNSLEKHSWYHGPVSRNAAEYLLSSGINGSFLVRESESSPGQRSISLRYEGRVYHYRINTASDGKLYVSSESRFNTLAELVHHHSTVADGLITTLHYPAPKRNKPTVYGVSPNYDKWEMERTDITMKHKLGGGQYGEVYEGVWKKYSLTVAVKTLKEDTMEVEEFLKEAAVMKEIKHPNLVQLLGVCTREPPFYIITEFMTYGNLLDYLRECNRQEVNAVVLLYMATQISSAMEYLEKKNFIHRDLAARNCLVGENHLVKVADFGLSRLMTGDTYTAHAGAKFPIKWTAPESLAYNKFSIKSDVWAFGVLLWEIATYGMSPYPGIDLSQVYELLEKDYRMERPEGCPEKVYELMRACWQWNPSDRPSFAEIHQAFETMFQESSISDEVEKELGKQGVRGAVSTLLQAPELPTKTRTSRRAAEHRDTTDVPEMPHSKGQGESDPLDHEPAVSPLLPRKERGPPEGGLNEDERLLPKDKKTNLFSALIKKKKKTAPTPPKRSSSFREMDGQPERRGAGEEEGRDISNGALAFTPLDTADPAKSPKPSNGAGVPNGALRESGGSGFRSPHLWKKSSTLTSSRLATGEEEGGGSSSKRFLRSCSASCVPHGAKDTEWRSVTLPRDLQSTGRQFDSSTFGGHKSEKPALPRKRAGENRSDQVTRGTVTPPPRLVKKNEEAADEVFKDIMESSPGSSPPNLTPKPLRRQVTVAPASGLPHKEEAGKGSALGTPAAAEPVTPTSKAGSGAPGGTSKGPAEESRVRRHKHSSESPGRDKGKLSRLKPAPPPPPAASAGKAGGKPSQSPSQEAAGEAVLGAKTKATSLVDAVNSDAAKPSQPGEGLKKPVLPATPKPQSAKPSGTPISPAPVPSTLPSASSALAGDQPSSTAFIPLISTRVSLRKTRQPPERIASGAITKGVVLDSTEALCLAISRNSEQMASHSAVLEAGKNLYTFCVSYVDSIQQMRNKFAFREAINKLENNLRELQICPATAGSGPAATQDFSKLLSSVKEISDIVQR", "experiment": "[…] kinase assay, P-81 phosphocellulose", "type": "biochemical"}, "CDK2/Cyclin E": {"target": "T2, CDK2/Cyclin E (Homo sapiens, UniProt P24941)", "T2 construct": "kinase complex; with G1/S-specific cyclin-E1", "experiment": "[…] kinase assay, P-81 phosphocellulose", "type": "biochemical"}, "[3]": {"conditions": "read-out: MTT Assay ^a, IC50 (μM) / K-562"}}, "note": "Like-named read-outs stand apart in the source and are kept apart here."}
{"compound": "CSc1nnc2[nH]nc(C)c2n1", "note": "[compound 1, 3-methyl-5-methylsulfanyl-1H-pyrazolo[4,3-e][1,2,4]triazine]", "values": [{"measurement": "IC50", "setting": "[1]", "result": "> 100", "unit": "µM"}, {"measurement": "IC50", "setting": "[2]; [3]", "result": "> 100", "unit": "µM"}]}
{"compound": "CSc1nnc2c(n1)c(C)nn2CC(O)CO", "note": "(centres unmarked) [compound 4, 1-(2,3-dihydroxypropyl)-3-methyl–5-methylsulfanyl-1H-pyrazolo[4,3-e][1,2,4]triazine]", "values": [{"measurement": "IC50", "setting": "[1]", "result": "> 100", "unit": "µM"}, {"measurement": "IC50", "setting": "[2]; [3]", "result": "> 100", "unit": "µM"}]}
{"compound": "CSc1nnc2c(n1)c(C)nn2CCC(CO)CO", "note": "[compound 8, 1-[(4-hydroxy-3-hydroxymethyl)butyl]-3-methyl-5-methylsufanyl-1H-pyrazolo[4,3-e][1,2,4]triazine]", "values": [{"measurement": "IC50", "setting": "[1]", "result": "> 100", "unit": "µM"}, {"measurement": "IC50", "setting": "[2]; [3]", "result": "> 100", "unit": "µM"}]}
{"compound": "CSc1nnc2c(n1)c(C)nn2CCBr", "note": "[compound 6, 1-(2-bromoethyl)-3-methyl-5-methylsulfanyl-1H-pyrazolo[4,3-e][1,2,4]triazine]", "values": [{"measurement": "IC50", "setting": "[1]", "result": "> 100", "unit": "µM"}, {"measurement": "IC50", "setting": "[2]; [3]", "result": "> 100", "unit": "µM"}]}
{"compound": "CSc1nnc2nn(CCO)c(C)c2n1", "note": "[compound 3, 2-(2-hydroxyethyl)-3-methyl-5-methylsulfanyl-2H-pyrazolo[4,3-e][1,2,4]triazine]", "values": [{"measurement": "IC50", "setting": "[1]", "result": "> 100", "unit": "µM"}, {"measurement": "IC50", "setting": "[2]; [3]", "result": "> 100", "unit": "µM"}]}
{"compound": "CSc1nnc2c(n1)c(C)nn2CCO", "note": "[compound 2, 1-(2-hydroxyethyl)-3-methyl–5-methylsulfanyl-1H-pyrazolo[4,3-e][1,2,4]triazine]", "values": [{"measurement": "IC50", "setting": "[1]", "result": "> 100", "unit": "µM"}, {"measurement": "IC50", "setting": "[2]; [3]", "result": "> 100", "unit": "µM"}]}
{"compound": "CCOC(=O)C(CCn1nc(C)c2nc(SC)nnc21)C(=O)OCC", "note": "[compound 7, 1-(ethyl 2-carboethoxybutanoate-4-yl)-3-methyl-5-methylsulfanyl-1H-pyrazolo[4,3-e][1,2,4]triazine]", "values": [{"measurement": "IC50", "setting": "CDK2/Cyclin E", "result": "> 50", "unit": "µM"}, {"measurement": "IC50", "setting": "[2]; read-out: IC50 (μM) ^a / CDK2/Cyclin E", "result": "> 50", "unit": "µM"}]}
